Laboratory results published in patent publication US9156831B2, “Chemical compounds” (ASTRAZENECA AB, priority 2013, dated 2015).

Experiments:
Experiment in all cases: Cell proliferation assay (MTS)
H2170 = assay type: cell-based, human
Experimental: (§1) The sensitivity of a panel of human cancer cell lines to the effects of compounds was determined in a standard proliferation assay. Cell lines were sourced through the AstraZeneca Cell Bank.
(§2) Cells were plated in 96 well plates at densities of 1000-6000 cells per well in RPMI media containing 10% FBS. After incubation at 37° C. for 16 hours, various concentrations of compound were added to the assay plates. After incubation for an additional 72 h, the viable cells were determined by the addition of MTS reagent (Promega #3582) to each well for 2 h. MTS is a tetrazolium salt that is bioreduced by metabolically active cells in the presence of an electron coupling reagent to formazan. The formazan product was then quantitated by absorbance at 490 nm, as an indicator of the relative number of live cells. In order to determine the GI50 (concentration at which growth of cells was inhibited by 50%) the relative number of cells present at the time of drug addition was determined by comparison with the MTS readout before the drug was added, and this value was subtracted from the 72 hr value of untreated cells as a measure of cell growth during the assay.

OE19 = assay type: cell-based, human
Experimental: (§3) The sensitivity of a panel of human cancer cell lines to the effects of compounds was determined in a standard proliferation assay.
(§4) Cells were plated in 96 well plates at densities of 1000-6000 cells per well in RPMI media containing 10% FBS. After incubation at 37° C. for 16 hours, various concentrations of compound were added to the assay plates. After incubation for an additional 72 h, the viable cells were determined by the addition of MTS reagent (Promega #3582) to each well for 2 h. […] The formazan product was then quantitated by absorbance at 490 nm, as an indicator of the relative number of live cells. In order to determine the GI50 (concentration at which growth of cells was inhibited by 50%) the relative number of cells present at the time of drug addition was determined by comparison with the MTS readout before the drug was added, and this value was subtracted from the 72 hr value of untreated cells as a measure of cell growth during the assay.

AZ521 = assay type: cell-based, human
Experimental: as §3, §2

NUGC4 = assay type: cell-based, human
Experimental: as §3, §2

SW948 = assay type: cell-based, human
Experimental: as §3, §2

BT549 = assay type: cell-based, human
Experimental: as §3, §4

HS746T = assay type: cell-based, human
Experimental: as §3, §2

647V = assay type: cell-based, human
Experimental: as §3, §4

MDAMB468 = assay type: cell-based, human
Experimental: as §3, §4

HUPT3 = assay type: cell-based, human
Experimental: as §1, §2

SNU354 = assay type: cell-based, human
Experimental: as §3, §4

LS180 = assay type: cell-based, human
Experimental: as §3, §4

SKCO1 = assay type: cell-based, human
Experimental: as §3, §4

SUM52PE = assay type: cell-based, human
Experimental: as §3, §2

DU145 = assay type: cell-based, human
Experimental: as §3, §4

THP1 = assay type: cell-based, human
Experimental: as §1, §2

MDAMB157 = assay type: cell-based, human
Experimental: as §3, §2

OCIAML2 = assay type: cell-based, human
Experimental: as §3, §2

MGHU3 = assay type: cell-based, human
Experimental: as §1, §2

UMUC3 = assay type: cell-based, human
Experimental: as §3, §2

WSUDLCL2 = assay type: cell-based, human
Experimental: as §3, §4

GTL16 = assay type: cell-based, human
Experimental: as §3, §4

22RV1 = assay type: cell-based, human
Experimental: as §3, §2

RERFLCSQ1 = assay type: cell-based, human
Experimental: as §3, §2

H1975 = assay type: cell-based, human
Experimental: as §1, §2

SC1 = assay type: cell-based, human
Experimental: as §3, §4

HLF = assay type: cell-based, human
Experimental: as §1, §2

CALU3 = assay type: cell-based, human
Experimental: as §1, §4

MOLM16 = assay type: cell-based, human
Experimental: as §3, §2

CALU1 = assay type: cell-based, human
Experimental: as §3, §2

CC20 = assay type: cell-based, human
Experimental: as §3, §2

HT1197 = assay type: cell-based, human
Experimental: as §3, §2

HRA19 = assay type: cell-based, human
Experimental: as §1, §2

L363 = assay type: cell-based, human
Experimental: as §3, §2

HS766T = assay type: cell-based, human
Experimental: as §1, §2

BEL7404 = assay type: cell-based, human
Experimental: as §1, §2

TCCSUP = assay type: cell-based, human
Experimental: as §3, §2

SMMC7721 = assay type: cell-based, human
Experimental: as §3, §4

IM9 = assay type: cell-based, human
Experimental: as §1, §2

H2286 = tested on: H2286
Experimental: as §3, §4

COLO320DM = tested on: COLO320DM
Experimental: as §1, §2

H358 = assay type: cell-based, human
Experimental: as §3, §4

[1] = Homo sapiens, Colon, PIK3CA MUT
[2] = Homo sapiens, Bladder, PIK3CA WT
[3] = Homo sapiens, Blood/lymph, PIK3CA WT

## CCn1nc(C2CCN(C(=O)CCO)CC2)nc1-c1cnc(N)c(-c2nnc(C(C)(C)C)o2)n1 [Example 3, 1-(4-(5-(5-amino-6-(5-tert-butyl-1,3,4-oxadiazol-2-yl)pyrazin-2-yl)-1-ethyl-1H-1,2,4-triazol-3-yl)piperidin-1-yl)-3-hydroxypropan-1-one]
H2170
  Category: Resistant (resistant (GI50>1.0 μM))
H2170; Homo sapiens, NCI-H2170, Lung, PIK3CA WT
  GI50: 7.64 µM
OE19
  Category: Resistant (resistant (GI50>1.0 μM))
OE19; Homo sapiens, Esophagus, PIK3CA WT
  GI50: 5.13 µM
AZ521
  Category: Resistant (resistant (GI50>1.0 μM))
AZ521; Homo sapiens, AZ-521, Duodenum, PIK3CA WT
  GI50: 2.06 µM
NUGC4
  Category: Resistant (resistant (GI50>1.0 μM))
NUGC4; Homo sapiens, NUGC-4, Stomach, PIK3CA WT
  GI50: 30 µM
SW948
  Category: Sensitive (sensitive (GI50<=1.0 μM))
SW948; [1]
  GI50: 0.911 µM
BT549
  Category: Resistant (resistant (GI50>1.0 μM))
BT549; Homo sapiens, BT-549, Breast, PIK3CA WT
  GI50: 17.4 µM
HS746T
  Category: Resistant (resistant (GI50>1.0 μM))
HS746T; Homo sapiens, Stomach, PIK3CA WT
  GI50: 5.98 µM
647V
  Category: Resistant (resistant (GI50>1.0 μM))
647V; [2]
  GI50: 5.46 µM
MDAMB468
  Category: Resistant (resistant (GI50>1.0 μM))
MDAMB468; Homo sapiens, MDA-MB-468, Breast, PIK3CA WT
  GI50: 9.33 µM
HUPT3
  Category: Resistant (resistant (GI50>1.0 μM))
HUPT3; Homo sapiens, HuP-T3, Pancreas, PIK3CA WT
  GI50: 13.4 µM
SNU354
  Category: Resistant (resistant (GI50>1.0 μM))
SNU354; Homo sapiens, SNU-354, Liver, PIK3CA WT
  GI50: 5.6 µM
LS180
  Category: Resistant (resistant (GI50>1.0 μM))
LS180; [1]
  GI50: 9.94 µM
SKCO1
  Category: Resistant (resistant (GI50>1.0 μM))
SKCO1; Homo sapiens, SK-CO-1, Colon, PIK3CA WT
  GI50: 1.13 µM
SUM52PE
  Category: Resistant (resistant (GI50>1.0 μM))
SUM52PE; Homo sapiens, Breast, PIK3CA WT
  GI50: 1.15 µM
DU145
  Category: Resistant (resistant (GI50>1.0 μM))
DU145; Homo sapiens, DU-145, Prostate, PIK3CA WT
  GI50: 8.24 µM
THP1
  Category: Sensitive (sensitive (GI50<=1.0 μM))
THP1; Homo sapiens, THP-1, Blood/lymph, PIK3CA WT
  GI50: 0.528 µM
MDAMB157
  Category: Resistant (resistant (GI50>1.0 μM))
MDAMB157; Homo sapiens, MDA-MB-157, Breast, PIK3CA WT
  GI50: 30 µM
OCIAML2
  Category: Resistant (resistant (GI50>1.0 μM))
OCIAML2; Homo sapiens, OCI-AML2, Blood/lymph, PIK3CA WT
  GI50: 30 µM
MGHU3
  Category: Resistant (resistant (GI50>1.0 μM))
MGHU3; [2]
  GI50: 11.5 µM
UMUC3
  Category: Resistant (resistant (GI50>1.0 μM))
UMUC3; [2]
  GI50: 6.22 µM
WSUDLCL2
  Category: Resistant (resistant (GI50>1.0 μM))
WSUDLCL2; [3]
  GI50: 17.7 µM
GTL16
  Category: Resistant (resistant (GI50>1.0 μM))
GTL16; Homo sapiens, GTL 16, Stomach, PIK3CA WT
  GI50: 17.4 µM
22RV1
  Category: Resistant (resistant (GI50>1.0 μM))
22RV1; Homo sapiens, Prostate, PIK3CA MUT
  GI50: 4.14 µM
RERFLCSQ1; Homo sapiens, RERF-LC-Sq1, Lung, PIK3CA MUT
  GI50: 0.771 µM
RERFLCSQ1; RERFLCSQ1
  Category: Sensitive (sensitive (GI50<=1.0 μM))
H1975
  Category: Resistant (resistant (GI50>1.0 μM))
H1975; Homo sapiens, NCI-H1975, Lung, PIK3CA MUT
  GI50: 2.26 µM
SC1
  Category: Resistant (resistant (GI50>1.0 μM))
SC1; Homo sapiens, SC-1, Blood/lymph, PIK3CA WT
  GI50: 30 µM
HLF
  Category: Resistant (resistant (GI50>1.0 μM))
HLF; Homo sapiens, Liver, PIK3CA WT
  GI50: 30 µM
CALU3
  Category: Resistant (resistant (GI50>1.0 μM))
CALU3; Homo sapiens, Calu-3, Lung, PIK3CA WT
  GI50: 1.3 µM
MOLM16
  Category: Resistant (resistant (GI50>1.0 μM))
MOLM16; [3]
  GI50: 4.6 µM
CALU1
  Category: Resistant (resistant (GI50>1.0 μM))
CALU1; Homo sapiens, Calu-1, Lung, PIK3CA WT
  GI50: 16 µM
CC20
  Category: Resistant (resistant (GI50>1.0 μM))
CC20; Homo sapiens, Colon, PIK3CA WT
  GI50: 30 µM
HT1197
  Category: Resistant (resistant (GI50>1.0 μM))
HT1197; Homo sapiens, Bladder, PIK3CA MUT
  GI50: 2.8 µM
HRA19
  Category: Sensitive (sensitive (GI50<=1.0 μM))
HRA19; Homo sapiens, Rectum, PIK3CA MUT
  GI50: 0.393 µM
L363
  Category: Sensitive (sensitive (GI50<=1.0 μM))
L363; Homo sapiens, L-363, Blood/lymph, PIK3CA MUT
  GI50: 0.681 µM
HS766T
  Category: Resistant (resistant (GI50>1.0 μM))
HS766T; Homo sapiens, Pancreas, PIK3CA WT
  GI50: 3.47 µM
BEL7404
  Category: Resistant (resistant (GI50>1.0 μM))
BEL7404; Homo sapiens, BEL-7404, Liver, PIK3CA WT
  GI50: 14.9 µM
TCCSUP
  Category: Sensitive (sensitive (GI50<=1.0 μM))
TCCSUP; Homo sapiens, TCC-SUP, Bladder, PIK3CA MUT
  GI50: 0.724 µM
SMMC7721
  Category: Resistant (resistant (GI50>1.0 μM))
SMMC7721; Homo sapiens, SMMC-7721, Liver, PIK3CA WT
  GI50: 30 µM
IM9
  Category: Resistant (resistant (GI50>1.0 μM))
IM9; Homo sapiens, IM-9, Blood/lymph, PIK3CA WT
  GI50: 30 µM
H2286; H2286
  Category: Resistant (resistant (GI50>1.0 μM))
H2286; Homo sapiens, NCI-H2286
  GI50: 20 µM
COLO320DM; COLO320DM
  Category: Resistant (resistant (GI50>1.0 μM))
COLO320DM; Homo sapiens, COLO 320DM
  GI50: 2.51 µM
H358
  Category: Resistant (resistant (GI50>1.0 μM))
H358; Homo sapiens, NCI-H358, Lung, PIK3CA WT
  GI50: 4.64 µM
